Where two headings read alike, the source gives them in different places.
Tests used:
MCF-7 cells = experiment: cell cytotoxic effects against MCF-7 cells (72 h), A490; type: cell-based, human
[1] = system: human immunodeficiency virus-1 (HIV-1); experiment: anti-HIV MAGI assay; type: cell-based; conditions: Human immunodeficiency virus 1, MAGI, anti-HIV
Description: We examined the inhibitory activities of DDPs against various species of bacteria (both gram-negative and gram-positive bacteria), fungi and viruses. […] In contrast, preliminary screening of the DDPs for anti-viral agents with hepatitis B virus (HBV), measles virus (MV), Epstein-Barr virus (EBV), herpes simplex virus (HSV) and human immunodeficiency virus-1 (HIV-1) indicated their selective inhibition of HIV.

[2] = cytotoxicity in Drosophila DL1 cells; type: cell-based; conditions: Drosophila, DL1 cells (embryonic macrophage-derived), DL1 cells
Description: (§1) We screened the DDPs on the Drosophila assay system for cytotoxicity, inhibitory activity of innate immune signalling and insecticidal activity. The cytotoxicity of the DDPs was evaluated using two cell lines, embryonic macrophage-derived DL1 cells[58]–[60] and larval blood cell-derived l(2)mbn cells, and their IC50 values are listed in Supplementary Table 23.

DL1 cells = experiment: cytotoxicity in Drosophila DL1 cells; type: cell-based; conditions: DL1 cells; for IC50: Drosophila melanogaster, cytotoxicity
Description: as §1

OVCAR-8 = experiment: cells; parameters: species or system JFCR39 human cancer cell lines; JFCR39 panel growth inhibition, sulforhodamine B total protein after 48 h; conditions: Homo sapiens, OVCAR-8, 48 h
Summary of the method: (§2)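 Human cancer lines from the JFCR39 panel were cultured in RPMI-1640 with 5% FBS and 1 µg mL-1 kanamycin at 37°C, 5% CO2. Cells were exposed to compound for 48 hours, and growth was measured as total cellular protein by sulforhodamine B staining; GI50 from duplicate assays.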

LOX-IMVI = experiment: cells; parameters: species or system JFCR39 human cancer cell lines; JFCR39 panel growth inhibition, sulforhodamine B total protein after 48 h; conditions: Homo sapiens, LOX IMVI, 48 h
Summary of the method: as §2

MKN1 = experiment: cells; parameters: species or system JFCR39 human cancer cell lines; JFCR39 panel growth inhibition, sulforhodamine B total protein after 48 h; conditions: Homo sapiens, MKN-1, 48 h
Summary of the method: as §2

MKN-B = experiment: cells; parameters: species or system JFCR39 human cancer cell lines; JFCR39 panel growth inhibition, sulforhodamine B total protein after 48 h; conditions: 48 h
Summary of the method: as §2

HBC-5 = experiment: cells; parameters: species or system JFCR39 human cancer cell lines; JFCR39 panel growth inhibition, sulforhodamine B total protein after 48 h; conditions: HBC5, 48 h
Summary of the method: as §2

OVCAR-3 = experiment: cells; parameters: species or system JFCR39 human cancer cell lines; JFCR39 panel growth inhibition, sulforhodamine B total protein after 48 h; conditions: Homo sapiens, OVCAR-3, 48 h
Summary of the method: as §2

MDA-MB-231 = experiment: cells; parameters: species or system JFCR39 human cancer cell lines; JFCR39 panel growth inhibition, sulforhodamine B total protein after 48 h; conditions: Homo sapiens, MDA-MB-231, 48 h
Summary of the method: as §2

MAGI cells = experiment: cytotoxicity in the anti-HIV assay (CC50); type: cell-based; conditions: single determinations
[3] = replicate 1, relative to DMSO 1%, read-out: % viability, viability 1
[4] = replicate 2, relative to DMSO 1%, read-out: % viability, viability 2

SMILES: C=C1CC[C@H]2[C@]3(C)C[C@@H](C=C(C)C)O[C@H]3CC[C@]2(C)[C@@H]1Cc1c(OC)oc(CO)c(C)c1=O [Compound 17]
- cytotoxicity against the bulk of MCF-7 cells (MCF-7 cells): dose-dependent cytotoxicity
- viability at 0.1 µM (MCF-7 cells; Homo sapiens, MCF7, 72 h, MCF-7, 72 h, 0.1 µM (DMSO 0.002%), read-out: A490 (control =1) ave): 84.7%
- viability at 1 µM (MCF-7 cells; Homo sapiens, MCF7, 72 h, MCF-7, 72 h, 1 µM (DMSO 0.02%), read-out: A490 (control =1) ave): 48.1%
- viability at 10 µM (MCF-7 cells; Homo sapiens, MCF7, 72 h, MCF-7, 72 h, 10 µM (DMSO 0.2%), read-out: A490 (control =1) ave): 29.4%
- A490 ave (MCF-7 cells; MCF-7, 72 h, 0.1 µM (DMSO 0.002%), control 1.064): 0.901
- A490 ave (MCF-7 cells; MCF-7, 72 h, 1 µM (DMSO 0.02%), control 1.104): 0.531
- A490 ave (MCF-7 cells; MCF-7, 72 h, 10 µM (DMSO 0.2%), control 1.049): 0.309
- EC50 ([1]; MAGI assay, read-out: EC50): < 0.2 µM
- EC50 ([1]; average of numeric determinations, read-out: Avg. EC50): 1.36 µM
- viability at 0.04 µM [2, 3]: 195%
- viability at 0.04 µM [2, 4]: 207%
- viability at 0.2 µM [2, 3]: 174%
- viability at 0.2 µM [2, 4]: 181%
- viability at 1 µM [2, 3]: 94.2%
- viability at 1 µM [2, 4]: 35.7%
- viability at 4 µM [2, 3]: 19.3%
- viability at 4 µM [2, 4]: 20.1%
- viability at 10 µM [2, 3]: 18.3%
- viability at 10 µM [2, 4]: 18.8%
- viability at 20 µM [2, 3]: 15.2%
- viability at 20 µM [2, 4]: 19.6%
- Luminescence Raw1 (DL1 cells; 0.04 µM, replicate 1): 2678864
- Luminescence Raw2 (DL1 cells; 0.04 µM, replicate 2): 2844064
- Luminescence Raw1 (DL1 cells; 0.2 µM, replicate 1): 2387791
- Luminescence Raw2 (DL1 cells; 0.2 µM, replicate 2): 2484453
- Luminescence Raw1 (DL1 cells; 1 µM, replicate 1): 1292136
- Luminescence Raw2 (DL1 cells; 1 µM, replicate 2): 490161
- Luminescence Raw1 (DL1 cells; 4 µM, replicate 1): 264802
- Luminescence Raw2 (DL1 cells; 4 µM, replicate 2): 275258
- Luminescence Raw1 (DL1 cells; 10 µM, replicate 1): 251461
- Luminescence Raw2 (DL1 cells; 10 µM, replicate 2): 258312
- Luminescence Raw1 (DL1 cells; 20 µM, replicate 1): 208914
- Luminescence Raw2 (DL1 cells; 20 µM, replicate 2): 269129
- IC50 (DL1 cells; average of two replicates, read-out: IC50 Average): 2.78 µM
- IC50 (DL1 cells; average±SEM, read-out: IC50): 2.78 ± 0.68 µM
- IC50 (DL1 cells; replicate 1, read-out: IC50 (1)): 3.46 µM
- IC50 (DL1 cells; replicate 2, read-out: IC50 (2)): 2.1 µM
- GI50 (OVCAR-8): 10.8 µM
- GI50 (LOX-IMVI): 10.4 µM
- GI50 (MKN1): 19.3 µM
- GI50 (MKN-B): 10 µM
- GI50 (HBC-5): 11.8 µM
- GI50 (OVCAR-3): 10.5 µM
- GI50 (MDA-MB-231): 13.9 µM
- Cytotoxicity (MAGI cells): >10 µM

— paper PMC7156458, “Synthetic biology based construction of biological activity-related library of fungal decalin-containing diterpenoid pyrones” (Nature Communications, 2020)
